Where “and” joins values, the source holds several entries; their conditions need not be identical. Equal values may be shown once. Where a name gives a salt, the structure may show the parent alone.
Tests used:
Type in all cases: cell-based
[1] = test system: Glutathione-S transferase
[2] = test system: Homoprotocatechuate 2,3-dioxygenase
AtzA [3] = molecular target: T1, AtzA (Pseudomonas sp., UniProt P72156)
T1 construct: expressed in transfected cells; host or cells: E. coli DH5α (pMD4)
T1 sequence (P72156 1-474): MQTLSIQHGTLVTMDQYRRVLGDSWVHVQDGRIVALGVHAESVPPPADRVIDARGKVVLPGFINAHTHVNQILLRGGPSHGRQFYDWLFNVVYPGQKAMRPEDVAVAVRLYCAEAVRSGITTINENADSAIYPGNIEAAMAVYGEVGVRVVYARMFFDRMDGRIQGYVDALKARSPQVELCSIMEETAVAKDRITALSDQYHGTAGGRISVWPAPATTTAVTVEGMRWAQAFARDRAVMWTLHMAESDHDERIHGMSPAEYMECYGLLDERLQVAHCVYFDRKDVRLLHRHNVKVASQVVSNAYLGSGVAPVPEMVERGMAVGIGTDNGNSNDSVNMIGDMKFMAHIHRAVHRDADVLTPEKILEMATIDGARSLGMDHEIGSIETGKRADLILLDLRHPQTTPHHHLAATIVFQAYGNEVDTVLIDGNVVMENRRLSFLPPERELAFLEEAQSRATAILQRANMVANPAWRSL

AtzA [4] = molecular target: T1, AtzA; remark: listed apart in the source
CAH [5] = molecular target: T2, CAH (Moorella thermoacetica, UniProt Q2RGM7)
T2 construct: expressed in transfected cells; host or cells: E. coli BL21(DE3)(pET28b+CAH), IPTG-induced
T2 sequence (Q2RGM7 1-367): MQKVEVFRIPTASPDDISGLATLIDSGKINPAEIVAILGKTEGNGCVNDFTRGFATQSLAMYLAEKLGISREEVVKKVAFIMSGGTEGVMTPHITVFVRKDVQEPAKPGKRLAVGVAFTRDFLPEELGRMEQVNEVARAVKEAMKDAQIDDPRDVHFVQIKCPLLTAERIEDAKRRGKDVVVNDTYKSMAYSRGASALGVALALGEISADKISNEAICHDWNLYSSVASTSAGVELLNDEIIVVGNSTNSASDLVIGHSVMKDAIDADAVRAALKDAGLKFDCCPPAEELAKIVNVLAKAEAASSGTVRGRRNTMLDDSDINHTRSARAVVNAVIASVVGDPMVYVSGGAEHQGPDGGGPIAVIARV

CAH [6] = molecular target: T2, CAH; remark: listed apart in the source
[7] = test system: Pseudomonas sp. NCIB 9816-4
Escherichia coli DH5α = test system: Escherichia coli DH5α
Azo reductase = molecular target: T3, Azo reductase (Staphylococcus aureus, UniProt Q50H63)
T3 construct: expressed in transfected cells; host or cells: E. coli DH5 alpha
T3 sequence (Q50H63 1-188): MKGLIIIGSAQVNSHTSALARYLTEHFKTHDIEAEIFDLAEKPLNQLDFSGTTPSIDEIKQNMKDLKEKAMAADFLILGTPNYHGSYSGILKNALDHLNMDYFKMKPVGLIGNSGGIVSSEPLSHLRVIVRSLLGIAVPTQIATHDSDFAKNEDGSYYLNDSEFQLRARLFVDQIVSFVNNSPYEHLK

O=[N+]([O-])c1ccc(Cl)c([N+](=O)[O-])c1 [1-chloro2,4-dinitrobenzene]
Ratio (free cells/gel) [1]: ~3.8

CC(=O)Oc1ccc(O)c(O)c1 [3,4 Dihydroxypheny acetate]
Ratio (free cells/gel) [2]: 1-2.5

CCNc1nc(Cl)nc(NC(C)C)n1 [Atrazine, 2-chloro-4-ethylamino-6-isopropylamino-1,3,5-triazine]
enhancement of atrazine degradation rates (AtzA [3]): threefold
rate of atrazine removal, 75% phenyl gel compared to Teos gel (AtzA [3]): approximately 3 fold
rate of hydroxyatrazine formation, 75% phenyl gel compared to Teos gel (AtzA [3]): approximately 3 fold
atrazine removal, solutions left for 24 h (AtzA [4]): complete atrazine removal
increase of degradation rate (AtzA [4]): three-folds

O=c1[nH]c(=O)[nH]c(=O)[nH]1 [Cyanuric acid]
cyanuric acid removed (CAH [5]): over 7,000 M
degradation of cyanuric acid (in words) (CAH [5]): complete degradation
decrease of initial rate of cyanuric acid degradation (CAH [6]): approximately 50%
cyanuric acid level (CAH [6]; 15 h): undetectable levels

c1ccc2ccccc2c1 [Naphthalene]
concentration (below detection limit) [7]: < 1 nM
concentration left in the bulk solution (C/C0) [7]: ~25%
final concentration (Escherichia coli DH5α): 215.39 ± 7.23 µM
remaining concentration (Escherichia coli DH5α): 164.26 ± 8.90 µM and 107.67 ± 19.69 µM

Oc1ccccc1 [Phenol]
removal of single substrate from hydrocarbon solution (in words) [7]: very low removal

CN(C)c1ccc(/N=N/c2ccccc2C(=O)O)cc1 [methyl red sodium salt]
Ratio (free cells/gel) (Azo reductase): 1.8-3.7

Cc1ccc(O)cc1 [p-Cresol]
removal of single substrate from hydrocarbon solution (in words) [7]: completely degraded

— patent US20160175634A1 (priority 2014, published 2016)
